Measurements from ChEMBL document CHEMBL5584248, “Synthesis and biological characterization of an orally bioavailable lactate dehydrogenase-A inhibitor against pancreatic cancer” (Eur J Med Chem, 2024).

Tests used:
[1] = target: L-lactate dehydrogenase B chain (Homo sapiens, UniProt P07195); test: Inhibition of human LDH-B incubated for 10 mins in presence of […] by fluorescence based reader assay
[2] = target: L-lactate dehydrogenase A chain (Homo sapiens, UniProt P00338); test: Inhibition of human LDH-A incubated for 10 mins in presence of […] by fluorescence based reader assay

Chain of L-lactate dehydrogenase B chain (P07195 whole entry): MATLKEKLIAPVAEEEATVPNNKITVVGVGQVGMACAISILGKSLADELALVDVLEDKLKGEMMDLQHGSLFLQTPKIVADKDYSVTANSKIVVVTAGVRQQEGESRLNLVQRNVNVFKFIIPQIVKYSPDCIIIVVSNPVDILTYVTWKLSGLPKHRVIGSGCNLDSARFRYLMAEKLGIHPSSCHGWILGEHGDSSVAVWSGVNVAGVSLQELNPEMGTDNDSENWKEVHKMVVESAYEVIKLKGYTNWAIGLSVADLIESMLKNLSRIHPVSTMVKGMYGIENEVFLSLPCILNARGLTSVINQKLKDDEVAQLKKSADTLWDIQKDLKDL

SMILES	IC50 [1]	IC50 [2]
COC(=O)C(CC(=O)Nc1ccc(Cl)nn1)c1ccc(C(F)(F)F)cc1 (stereo not drawn)	> 100 µM	> 100 µM
O=C(CC(C(=O)O)c1ccc(C(F)(F)F)cc1)Nc1ccc(N2CCOCC2)c(Cl)c1 (stereo not drawn)	> 100 µM	> 100 µM
COC(=O)C(CC(=O)Nc1ccc(N2CCN(C)CC2)cc1)c1ccc(C(F)(F)F)cc1 (stereo not drawn)		66.4 µM
COC(=O)C(CC(=O)Nc1ccc(N2CCOCC2)c(F)c1)c1ccc(C(F)(F)F)cc1 (stereo not drawn)		71.5 µM
O=C(O)CC(NC(=O)c1ccccc1Cl)c1cccc(Cl)c1 (stereo not drawn)	> 100 µM	> 100 µM
COc1ccc(C(CC(=O)Nc2ccc(C(=O)c3nccn3C)cc2)C(=O)O)cc1 (stereo not drawn)		54.5 µM
COC(=O)C(CC(=O)Nc1ccc(C(=O)c2nccn2C)cc1)c1ccc(F)cc1 (stereo not drawn)		37.8 µM
O=C(O)CC(NC(=O)CCc1ccccc1)c1cccc(Cl)c1 (stereo not drawn)	> 100 µM	> 100 µM
COC(=O)C(CC(=O)Nc1ccc(C(=O)c2nccn2C)cc1)c1ccc(OC)cc1 (stereo not drawn)		50 µM
